Tests used:
[1] = system: hepatic stellate cell (HSC); assay type: cell-based; conditions: HSCs; MTT after 48 or 72 hours; FIG. 5B
Experimental: The HSC was purchased from ScienCell Research Laboratories (#5300, San Diego, Calif., USA) and the HUVEC was obtained from Bioresource Collection and Research Center, Food Industry Research and Development Institute (BCRC number: H-UV001, Hsinchu, Taiwan). Firstly, HUVECs and HSCs were planted in 96-well plates at a density of 2,000 cells/well and were left overnight for adhesion. Then, different forms of sorafenib or drug carriers were added. After 48 or 72 hours, 3-(4, 5-cimethylthiazol-2-yl)-2, 5-diphenyl tetrazolium bromide (MTT), which dissolved in PBS, was added to each well and the cells were further incubated at 37° C. for 3 hours. Finally, to each well, 50 μL of DMSO were added and a spectrophotometer was used to analyze the result at a wavelength of 570 nm. […] In addition, cells without any treatment served as Vehicle Group, while cells treated with free sorafenib served as Positive Control Group. […] Meanwhile, according to the results of cell viability of the cells treated with the PEG-PLGA particle alone (Negative Control Group 1) and PEG-PLGA/PLGA nanoparticle composition alone (Negative Control Group 2), it is confirmed that the PEG-PLGA and PEG-PLGA/PLGA co-polymer are non-cytotoxic and will not result in death of the target cells.

[2] = system: collagen I; experiment: Extracellular matrix (collagen I) content in fibrotic liver of treated mice; assay type: in vivo; conditions: FIG. 9C
Text: Collagen is the most abundant protein in not only the human body but also the extracellular matrix.

[3] = system: α-smooth muscle actin (α-SMA); experiment: α-SMA expression (western blotting) as indicator for HSC activation in treated mice; assay type: in vivo; conditions: FIG. 9A
Text: The expression of α-smooth muscle actin (α-SMA) is an indicator for HSC activation.

[4] = Pharmacokinetics of injected C6-loaded nanoparticle composition (C6 in blood); assay type: in vivo, C3H mice; conditions: 0.5 to 1 hour after injection; 0.1 mg/kg tail intravenous injection; FIG. 6
Experimental: C6 was injected to C3H mice with or without the nanoparticle encapsulation at a dosage of 0.1 mg/kg via tail intravenous injection. 40 μL of blood from the tail artery of the mice were collected and mixed with ethylenediaminetetraacetic acid (EDTA) at different period of time. Fluorescence intensity was measured under an excitation wavelength of 485 nm and an emission wavelength of 538 nm. Standard curves of the C6 or C6-loaded PLGA nanoparticle composition in blood were used to calculate the content of C6 in mice.

Structure (SMILES) | cell viability [1] | extracellular matrix in fluorescent microscopic image (illuminated regions) [2] | α-SMA expression (western blotting) [3] | C6 concentration in blood [4]
CNC(=O)c1cc(Oc2ccc(NC(=O)Nc3ccc(Cl)c(C(F)(F)F)c3)cc2)ccn1 [free sorafenib, sorafenib] | about 75% | not noteworthy | suppressed | –
CCN(CC)c1ccc2cc(-c3nc4ccccc4s3)c(=O)oc2c1 [C6 alone, Coumarin 6] | – | – | – | about 1%

From patent US20160166700A1, “METHOD FOR AMELIORATING LIVER FIBROSIS BY USING NANOPARTICLE CONTAINING TYROSINE KINASE INHIBITOR” (National Tsing Hua University, priority 2014, published 2016)
